Patent publication US20100215782A1, “NOVEL MITOCHONDRIAL UNCOUPLING METHODS AND COMPOSITIONS FOR ENHANCING ADIPOCYTE THERMOGENESIS” (METAPROTEOMICS, LLC, priority 2008, published 2010)

Legend:
3T3-L1 adipocytes = experiment: JC-1 mitochondrial membrane potential (uncoupling) assay in 3T3-L1 adipocytes; type: cell-based, murine; conditions: for Monomer/Aggregate Ratio: 3T3-L1 adipocytes, test material 25 μg/mL, JC-1 fluorescence relative to JC-1 negative control, values >1.06 significant (p<0.05)
Text: Objective—The objective of this experiment was to observe the dose-response effect of the mitochondrial uncoupler DNP on mitochondrial membrane potential in 3T3-L1 adipocytes using the lipophilic cationic dye, 5,5′,6,6′-tetrachloro-1,1′,3,3′-tetraethylbenzimidazolylcarbocyanine iodide (JC-1).
The Model—The 3T3-L1 murine fibroblast model is commonly used to study the potential effects of compounds on white adipose tissue in vitro. This cell line allows investigation of stimuli and mechanisms that regulate inflammatory mediators of cytokine secretion of the adipocyte. As preadipocytes, 3T3-L1 cells have a fibroblastic appearance. They replicate in culture until they form a confluent monolayer, after which cell-cell contact triggers Go/G1 growth arrest. Terminal differentiation of 3T3-L1 cells to adipocytes depends on proliferation of both pre- and post-confluent preadipocytes. Subsequent stimulation with 3-isobutyl-1-methylxanthane, dexamethasone, and high does of insulin (MDI) for two days prompts these cells to undergo post-confluent mitotic clonal expansion, exit the cell cycle, and begin to express adipocyte-specific genes. Approximately five days after induction of differentiation, more than 90% of the cells display the characteristic lipid-filled adipocyte phenotype. At this stage of differentiation, response to mitochondrial uncouplers such as DNP may be assessed.
Cell culture and Treatment—The murine fibroblast cell line 3T3-L1 was purchased from the American Type Culture Collection (Manassas, Va.) and sub-cultured according to instructions from the supplier. Prior to experiments, cells were cultured in DMEM containing 10% FBS-HI added 50 units penicillin/ml and 50 μg streptomycin/ml, and maintained in log phase prior to experimental setup. Cells were grown in a 5% CO2 humidified incubator at 37° C. Components of the pre-confluent medium included: (1) 10% FBS/DMEM (Fetal Bovine Serum/Dulbecco's Modified Eagle's Medium) containing 4.5 g glucose/L; (2) 50 U/ml penicillin; and (3) 50 μg/ml streptomycin. Growth medium was made by adding 50 ml of heat inactivated FBS and 5 ml of penicillin/streptomycin to 500 ml DMEM. This medium was stored at 4° C. Before use, the medium was warmed to 37° C. in a water bath.
[…] cells were seeded at an initial density of 6×10^4 cells/cm^2 in 24-well plates. For two days, the cells were allowed grow to reach confluence. Following confluence, the cells were forced to differentiate into adipocytes by the addition of differentiation medium; this medium consisted of (1) 10% FBS/DMEM (high glucose); (2) 0.5 mM methylisobutylxanthine; (3) 0.5 μM dexamethasone and (4) 10 μg/ml insulin (MDI medium). After three days, the medium was changed to post-differentiation medium consisting of 10 μg/ml insulin in 10% FBS/DMEM.
Treatment with Test Material 2,4-Dinitrophenol—On Day 6 post differentiation, DNP was dissolved in dimethyl sulfoxide (DMSO) and added to the culture medium to achieve concentrations of 500, 100, 50, 10 or 5 μM per column for 60 min at 37° C. JC-1 was then added to the test and negative control columns in 10 μL DMSO to achieve a final concentration of 5 μM and allowed to incubate at 37° C. for an additional 30 min. A DMSO and solvent plus JC-1 control were run concurrently with each experiment. A Packard Fluorocount spectrofluorometer (Model#BF10000, Meridan, Conn.) set at 560 nm excitation and 590 nm emission was used for quantification of aggregate fluorescence and at 485 nm excitation/530 emission for monomer fluorescence.
Measuring mitochondrial membrane potential changes (ΔΨm)—JC-1 (Sigma, St. Louis, Mo.) has advantages over other cationic dyes in that it can selectively enter into mitochondria and reversibly change color from green to red as the membrane potential increases. In healthy cells with high mitochondrial membrane potential (ΔΨm), JC-1 spontaneously forms complexes known as J-aggregates with intense red fluorescence. […]

[1] = cited from earlier work

Q: With `COc1cc(/C=C/C(=O)CC(=O)/C=C/c2ccc(O)c(OC)c2)ccc1O` [Curcumin] as the compound, how does the “Monomer/Aggregate Ratio” value (3T3-L1 adipocytes) read?
A: The value was 3.89.

Q: Which “Monomer/Aggregate Ratio” value (3T3-L1 adipocytes) does the source give for `CNCC(O)c1ccc(O)cc1` (centres unmarked) [Synephrine] here?
A: The value was 1.06.

Q: With `CCCCC[C@H](O)CC(=O)CCc1ccc(O)c(OC)c1` [6-Gingerol] as the compound, how does the “Monomer/Aggregate Ratio” value (3T3-L1 adipocytes) read?
A: The value was 1.14.

Q: Which “Monomer/Aggregate Ratio” value (3T3-L1 adipocytes) does the source give for `C[C@@H]1O[C@@H](OC[C@H]2O[C@@H](Oc3c(-c4ccc(O)c(O)c4)oc4cc(O)cc(O)c4c3=O)[C@H](O)[C@@H](O)[C@@H]2O)[C@H](O)[C@H](O)[C@H]1O` [Rutin Powder, Rutin] here?
A: The value was 1.37.

Q: For `Oc1ccc(C=Cc2cc(O)cc(O)c2)cc1` [Resveratrol], which “Monomer/Aggregate Ratio” value (3T3-L1 adipocytes) is on record?
A: The value was 1.48.

Q: Which “Average fall in diastolic blood pressure” value ([1]; 30 hypertensive patients) does the source give for `O=[N+]([O-])c1ccc(O)c([N+](=O)[O-])c1` [DNP, 2,4-dinitrophenol] here?
A: The value was 12.6%.

Q: What about the “Average fall in systolic blood pressure” value ([1]; 30 hypertensive patients) of the same compound?
A: Its value is 9.4%.

Q: What about the Dose generally well-tolerated ([1]; approximately 5 mg/kg body weight, feeling of warmth and increased perspiration reported) of the same compound?
A: The Dose generally well-tolerated was “up to 0.5 g”.

Q: What about the “Gradual increase in metabolic rate (average)” value ([1]; daily dosing of 3-5 mg/kg, maintained for a minimum of ten weeks) of the same compound?
A: Its value is 40%.

Q: What about the “Dose producing profuse sweating, increased heart rate, respiration rate and excessive body temperature rises” value ([1]; human, in vivo) of the same compound?
A: Its value is “Above 10 mg/kg”.

Q: And the “Average increase in metabolic rate for each dosage increment of 0.1 g” value ([1]; obese patients)?
A: Its value is 11%.

Q: What about the “Increase in resting metabolic rate” value ([1]; single doses of 3-5 mg/kg, within the first hour, maintained for 24 hours) of the same compound?
A: The value was 20-30%.

Q: What about the “Effect on blood pressure or heart rate” value ([1]; therapeutic doses, normal patients) of the same compound?
A: Its value is “no effect on blood pressure or heart rate”.

Q: What about the “Potency of positive control (decrease of ΔΨm)” value (3T3-L1 adipocytes; 18.4 μg DNP/mL) of the same compound?
A: The value was 45%.

Q: And the “Mean M/A (monomer/aggregate ratio) of positive control” value (3T3-L1 adipocytes; 100 μM 2,4-dinitrophenol (18.4 μg DNP/mL), 95% CI=1.34-1.39, n=200, over the experimental period)?
A: Its value is 1.36.

Q: What about the “Concentration at which monomer/aggregate ratio is significantly increased (p<0.05) relative to JC-1 negative controls” value (3T3-L1 adipocytes; 3T3-L1 adipocytes, 500, 100, 50, 10 or 5 μM for 60 min, FIG. 2) of the same compound?
A: The value was ≥ 50 µM.

Q: And the “Change of ΔΨm in 3T3-L1 adipocytes (in words)” value (3T3-L1 adipocytes; relative to negative JC-1 controls)?
A: Its value is “dose-related decreased in ΔΨm”.
